Entries after “also recorded” stand apart in the source; their conditions may differ.
Test system: LDLR null mice
Experiment: Plasma Serum Amyloid A (SAA) levels in LDLR null mice fed Western diet for two weeks
Format: in vivo, mouse
Conditions: statement over the experiments of Example 3 (single agents four out of four, Combined Formulation three out four, Novel Method three out three experiments)
Protocol: The plasma from the mice in FIG. 1 was analyzed for SAA as described as described (see, e.g., Chattopadhyay et al. (2015) Pharma. Res. Per. 3: e00154; Chattopadhyay et al. (2016) J. Lipid. Res. 57: 832-847).
Female LDLR null mice age 5-8 months (n=20 per group) were fed standard mouse chow (Chow) or a Western diet high in cholesterol and fat (WD) or were fed WD+0.06% by weight of a freeze-dried concentrate of transgenic tomatoes expressing the apoA-I mimetic peptide 6F, which was prepared as previously described (see, e.g., Chattopadhyay et al. (2015) Pharma. Res. Per. 3: e00154; Chattopadhyay et al. (2016) J. Lipid Res. 57: 832-847; PCT Pub. Nos: WO 2013/148214 (PCT/US2013/031037), WO 2015/175968 (PCT/US2015/031134)) (Tg6F), or the mice were fed WD with Ezetimibe added to give a daily dose of 10 mg/kg body weight/day (WD+Ezetimibe), or the mice were fed WD with Tg6F added at 0.06% by weight plus Ezetimibe (each added separately to the diet) to give a daily dose of Ezetimibe of 10 mg/kg body weight; the Tg6F and Ezetimibe were mixed into WD as described previously (Chattopadhyay et al. (2016) J. Lipid. […] After feeding the diets for two weeks, the mice were bled and total plasma cholesterol levels were determined as described (Id.). […]

For O=C1[C@H](CC[C@H](O)c2ccc(F)cc2)[C@@H](c2ccc(O)cc2)N1c1ccc(F)cc1 [Ezetimibe, (3R,4S)-1-(4-fluorophenyl)-3-[(3S)-3-(4-fluorophenyl)-3-hydroxypropyl]-4-(4-hydroxyphenyl)azetidin-2-one], the “plasma SAA levels” value was “equally effective; also recorded: significantly decreased the levels”.

Reference: patent publication US10905736B2, “Ezetimibe-associated ApoA-I mimetic peptides showing enhanced synergism” (The Regents of the University of California, priority 2016, dated 2021)
